US20260258085A1, “NOVEL DECAPEPTIDE AND USE THEREOF IN ANTIBACTERIAL” (METHYCURE BIOTECH CORP., priority 2023, published 2026)
Positions of bridges follow the written chain, without caps; N, C: chain ends. Non-standard residues stand in square brackets, D forms with d. Residues, ends and D or L forms follow the SMILES beside them. *: point of attachment. X1 = CC[C@H](C)CCCCC(=O)*; dDab = NCC[C@@H](N)C(=O)O; Dab = NCC[C@H](N)C(=O)O

Experiments:
[1] = tested on: P. aeruginosa containing the MCR-1 plasmid; assay type: cell-based, Pseudomonas aeruginosa; details: for Minimum Inhibitory Concentration, P. aeruginosa 1: strain 1, MCR-1 plasmid; for Minimum Inhibitory Concentration, P. aeruginosa 2: strain 2, MCR-1 plasmid
Experimental: (§1) The polymyxin-resistant pathogenic bacteria used for testing were all sourced from the hospital intensive care unit, isolated and cultured from clinical samples of patients with severe pneumonia. The strain species were identified by the hospital microbiology laboratory, and the presence of the mcr-1 gene in the strains was confirmed by high-throughput sequencing.
(§2) The culture procedure fully referenced Example 1.
(§3) Each bacterial species in the table was tested using 2 strains, denoted as “1” and “2” respectively.

[2] = tested on: polymyxin-resistant Acinetobacter baumannii; experiment: Efficacy in neutropenic mice with thigh infection; assay type: in vivo; details: neutropenic CD1 mice, 20 mg/kg subcutaneous at 2, 8, 14, 24 hours post-infection, endpoint 24 hours
Excerpt: All mice used in this part passed the ethical review of animal research at Nanjing University. To avoid the influence of the mouse's innate immune system on the intrinsic activity of the antimicrobial peptide, we constructed a neutropenic mouse model. This experiment used 6-week-old CD1 female mice (20-25 g). Mice were randomly housed in individually ventilated cages and maintained according to the standards of the Association for Assessment and Accreditation of Laboratory Animal Care International. The room was set to a 12-hour light cycle, temperature of 21° C., and humidity of 30%. […]
At 2, 8, 14, and 24 hours post-infection, mice were subcutaneously injected with 100 μL of vehicle (0.9% saline), Polymyxin E (Colistin) (20 mg/kg), or the antimicrobial peptide (20 mg/kg). […] All mice were closely monitored post-infection for signs of illness. Any abnormal clinical symptoms were recorded. […] Thigh muscles were processed aseptically, weighed, homogenized, and plated for CFU counts on MH agar containing 50 μg/mL gentamicin to quantify the bacterial burden. Efficacy was determined by the reduction in bacterial burden in the thighs compared to the […] control group. All graphical data were statistically analyzed using GraphPad Prism software (Prism v.9). Differences in burden between test and control groups were assessed using one-way analysis. […]

[3] = tested on: E. coli containing the MCR-1 plasmid; assay type: cell-based, Escherichia coli; details: for Minimum Inhibitory Concentration, E. coli 1: strain 1, MCR-1 plasmid; for Minimum Inhibitory Concentration, E. coli 2: strain 2, MCR-1 plasmid
Experimental: as §1, §2, §3

[4] = tested on: K. pneumoniae containing the MCR-1 plasmid; assay type: cell-based, Klebsiella pneumoniae; details: for Minimum Inhibitory Concentration, K. pneumoniae 1: strain 1, MCR-1 plasmid; for Minimum Inhibitory Concentration, K. pneumoniae 2: strain 2, MCR-1 plasmid
Experimental: as §1, §2, §3

[5] = tested on: A. baumannii containing the MCR-1 plasmid; assay type: cell-based, Acinetobacter baumannii; details: for Minimum Inhibitory Concentration, A. baumannii 1: strain 1, MCR-1 plasmid; for Minimum Inhibitory Concentration, A. baumannii 2: strain 2, MCR-1 plasmid
Experimental: as §1, §2, §3

Acinetobacter baumannii = experiment: Minimum inhibitory concentration test against common Gram-negative bacteria; assay type: cell-based; details: clinical isolate, 37° C., 16 hours, visual reading
Experimental: (§4) The pathogenic bacteria used for testing were all sourced from the intensive care unit of Gulou Hospital, isolated and cultured from clinical samples of patients with severe pneumonia. The strain species were identified by the Microbiology Laboratory of Gulou Hospital. The Gram-negative bacteria here include Escherichia coli, Pseudomonas aeruginosa, Acinetobacter baumannii, Klebsiella pneumoniae, etc.
(§5) A single colony of the test bacteria was inoculated into 5 ml of medium and cultured overnight to saturation. 10 μL of bacterial culture was aspirated and added to 990 μL of fresh medium, mixed well, to obtain a 100-fold diluted bacterial suspension. Then, 20 μL of the 100-fold diluted bacterial suspension was aspirated and added to 980 μL of fresh medium, mixed well. The bacteria obtained at this point were diluted 5000-fold.
(§6) The antimicrobial peptide was dissolved in Dimethyl sulfoxide (DMSO) to obtain a stock solution with a concentration of 12.8 mg/mL. Using DMSO, a two-fold serial dilution was performed for 10 consecutive times.
(§7) Add the 11 gradients of antimicrobial peptide diluted in step 1.1.2 to a 96-well plate, respectively, with the last well containing the same volume of DMSO. Then, add 48 μL of fresh medium to each well. Subsequently, add the 5000-fold diluted bacteria from step 1.1.1 to each well. Mix well. Incubate at 37° C. for 16 hours. Visually determine the concentration at which bacterial growth begins to be inhibited; this is the minimum inhibitory concentration (MIC).

Pseudomonas aeruginosa = experiment: as above; assay type: cell-based; details: clinical isolate, 37° C., 16 hours, visual reading
Experimental: as §4, §5, §6, §7

Klebsiella pneumoniae = experiment: as above; assay type: cell-based; details: clinical isolate, 37° C., 16 hours, visual reading
Experimental: as §4, §5, §6, §7

E. coli = experiment: as above; assay type: cell-based, Escherichia coli; details: clinical isolate, 37° C., 16 hours, visual reading
Experimental: as §4, §5, §6
as §7, with “Visually determine the concentration at which bacterial growth begins to be inhibited; this is the minimum inhibitory concentration (MIC).” left out

SMILES | Minimum Inhibitory Concentration, P. aeruginosa 1 [1] [µg/mL] | Minimum Inhibitory Concentration, P. aeruginosa 2 [1] [µg/mL] | bacterial burden in thighs (CFU) [2] | Minimum Inhibitory Concentration, E. coli 1 [3] [µg/mL] | Minimum Inhibitory Concentration, E. coli 2 [3] [µg/mL] | Minimum Inhibitory Concentration, K. pneumoniae 1 [4] [µg/mL] | Minimum Inhibitory Concentration, K. pneumoniae 2 [4] [µg/mL] | Minimum Inhibitory Concentration, A. baumannii 1 [5] [µg/mL] | Minimum Inhibitory Concentration, A. baumannii 2 [5] [µg/mL] | Minimum Inhibitory Concentration (MIC) (Acinetobacter baumannii) [µg/mL] | Minimum Inhibitory Concentration (MIC) (Pseudomonas aeruginosa) [µg/mL] | Minimum Inhibitory Concentration (MIC) (Klebsiella pneumoniae) [µg/mL] | Minimum Inhibitory Concentration (MIC) (E. coli) [µg/mL]
CC[C@H](C)CCCCC(=O)N[C@@H](CCN)C(=O)N[C@H](C(=O)N[C@@H](CCN)C(=O)N[C@H]1CCNC(=O)[C@H]([C@@H](C)O)NC(=O)[C@H](CCN)NC(=O)[C@H](CCN)NC(=O)[C@H](CC(C)C)NC(=O)[C@@H](CC(C)C)NC(=O)[C@H](CCN)NC1=O)[C@@H](C)O [Colistin, reference compound] (X1-[Dab]T[Dab][Dab][Dab][dL]L[Dab][Dab]T; lactam 4-C) | 64 | 128 | did not reduce the count of Acinetobacter baumannii | 128 | 256 | 64 | 128 | 128 | 128 |  |  |  | 
CC[C@H](C)CCCCC(=O)N[C@@H](CCN)C(=O)N[C@H](C(=O)N[C@H](CCN)C(=O)N[C@H]1CCNC(=O)[C@H](CC(C)C)NC(=O)[C@H](CCN)NC(=O)[C@H](CCN)NC(=O)[C@H]([C@@H](C)CC)NC(=O)[C@@H](CC(C)C)NC(=O)[C@H](CCN)NC1=O)[C@@H](C)O [Antimicrobial Peptide, {6-ME-Octanoic acid}-{Dab}-{Thr}-{D-Dab}-{Dab}-{Dab}-{D-Leu}-{Ile}-{Dab}-{Dab}-{Leu}] (X1-[Dab]T[dDab][Dab][Dab][dL]I[Dab][Dab]L; lactam 4-C) | 2 | 1 | significant reduction in colony-forming units (CFU) | 2 | 2 | 1 | 2 | 4 | 2 | 16 | 4 | 8 | 4
